This note sets out measurements from patent publication US20120045393A1 (priority 2009, published 2012).

Molecules are shown by their SMILES. Starred links: 1 amine or outer side, 2 acyl side, 3 side chain; linkers in the order of their positions; H or OH if unused. Non-standard residues stand in square brackets, D forms with d. Residues, ends and D or L forms follow the SMILES beside them. *: point of attachment. DOTA = O=C(O)CN1CCN(CC(=O)O)CCN(CC(=O)*)CCN(CC(=O)O)CC1; Bpa = N[C@@H](Cc1ccc(C(=O)c2ccccc2)cc1)C(=O)O; Ala(4-thiazolyl) = N[C@@H](Cc1cscn1)C(=O)O; d2Nal = N[C@H](Cc1ccc2ccccc2c1)C(=O)O; X2 = O=C(N(N[*:1])c1ccccn1)[*:2]; NHPh = c1ccc(N*)cc1; azaGly = NNC(=O)O; Sar = CNCC(=O)O A value given as a limit tells only on which side of the number the result lay.
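Also: Cell-associated radioactivity on confluent EFO-27 monolayers in 96-well plates, measured by microplate scintillation counting.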

The first assay relates to LHRH binding sites on human ovarian cancer cells (EFO-27).
Settings: not given
One may read the EC50 as the concentration needed to bring the measured effect to its halfway point. Lower therefore signals higher potency in that assay. `CN(CC(=O)N[C@@H](Cc1c[nH]cn1)C(=O)N[C@@H](Cc1c[nH]c2ccccc12)C(=O)N[C@@H](CO)C(=O)N[C@@H](Cc1c[nH]cn1)C(=O)N[C@H](CCCNC(=N)N)C(=O)N[C@@H](Cc1c[nH]c2ccccc12)C(=O)N[C@@H](Cc1ccccc1)C(=O)N1CCC[C@H]1C(=O)NNC(N)=O)C(=O)CN1CCN(CC(=O)O)CCN(CC(=O)O)CCN(CC(=O)O)CC1` [BRU-2730] (HELM PEPTIDE1{[O=C(O)CN1CCN(CC(=O)O)CCN(CC(=O)[*:2])CCN(CC(=O)O)CC1].[Sar].H.W.S.H.[dR].W.F.P.[O=C(NN[*:1])[*:2]].[am]}$$$$V2.0) returned a concentration giving a half-maximal response (EC50) of 12900 nM.
`CN(CC(=O)N[C@@H](Cc1cscn1)C(=O)N[C@@H](Cc1c[nH]c2ccccc12)C(=O)N[C@@H](CO)C(=O)N[C@@H](Cc1c[nH]cn1)C(=O)N[C@H](CCCNC(=N)N)C(=O)N[C@@H](Cc1c[nH]c2ccccc12)C(=O)N[C@@H](Cc1ccc(C(=O)c2ccccc2)cc1)C(=O)N1CCC[C@H]1C(=O)NNC(N)=O)C(=O)CN1CCN(CC(=O)O)CCN(CC(=O)O)CCN(CC(=O)O)CC1` [BRU-2768] ({DOTA}-[Sar][Ala(4-thiazolyl)]WSH[dR]W[Bpa]P[azaGly]-NH2) returned an EC50 of 12800 nM.
Regarding `CNCC(=O)N[C@@H](CCCNC(=N)N)C(=O)N[C@@H](Cc1c[nH]c2ccccc12)C(=O)N[C@@H](CO)C(=O)N[C@@H](Cc1c[nH]cn1)C(=O)N[C@H](CCCNC(=N)N)C(=O)N[C@@H](Cc1c[nH]c2ccccc12)C(=O)N[C@@H](Cc1ccc(C(=O)c2ccccc2)cc1)C(=O)N1CCC[C@H]1C(=O)NCCCN(C)CCCNC(=O)CN1CCN(CC(=O)O)CCN(CC(=O)O)CCN(CC(=O)O)CC1` [compound 3045], the EC50 was 210 ± 80 nM.
The same measure, in the same setting: to `CN(CC(=O)N[C@@H](Cc1c[nH]cn1)C(=O)N[C@@H](Cc1c[nH]c2ccccc12)C(=O)N[C@@H](CO)C(=O)N[C@@H](Cc1c[nH]cn1)C(=O)N[C@H](CCCNC(=N)N)C(=O)N[C@@H](Cc1c[nH]c2ccccc12)C(=O)NC1(C(=O)N2CCC[C@H]2C(=O)NNC(N)=O)Cc2ccccc2C1)C(=O)CN1CCN(CC(=O)O)CCN(CC(=O)O)CCN(CC(=O)O)CC1` [BRU-2764] belongs 4310 nM; to `CN(CC(=O)N[C@@H](Cc1c[nH]cn1)C(=O)N[C@@H](Cc1c[nH]c2ccccc12)C(=O)N[C@@H](CO)C(=O)N[C@@H](Cc1c[nH]cn1)C(=O)N[C@H](CCCNC(=N)N)C(=O)N[C@@H](Cc1c[nH]c2ccccc12)C(=O)N[C@@H](Cc1ccc(CN)cc1)C(=O)N1CCC[C@H]1C(=O)NNC(N)=O)C(=O)CN1CCN(CC(=O)O)CCN(CC(=O)O)CCN(CC(=O)O)CC1` [BRU-2760], 3550 nM; to `N=C(N)NCCC[C@H](NC(=O)[C@H](N)Cc1ccc2ccccc2c1)C(=O)N[C@@H](Cc1c[nH]c2ccccc12)C(=O)N[C@@H](CO)C(=O)N[C@@H](Cc1c[nH]cn1)C(=O)N[C@H](CCCNC(=N)N)C(=O)N[C@@H](Cc1c[nH]c2ccccc12)C(=O)N[C@@H](Cc1ccc(C(=O)c2ccccc2)cc1)C(=O)N1CCC[C@H]1C(=O)NCCCCNC(=O)CN1CCN(CC(=O)O)CCN(CC(=O)O)CCN(CC(=O)O)CC1` [compound 3042], 200 nM.
Take `CN(C(=O)CN1CCN(CC(=O)O)CCN(CC(=O)O)CCN(CC(=O)O)CC1)[C@H](Cc1ccc2ccccc2c1)C(=O)N[C@@H](Cc1c[nH]cn1)C(=O)N[C@@H](Cc1c[nH]c2ccccc12)C(=O)N[C@@H](CO)C(=O)N[C@@H](Cc1c[nH]cn1)C(=O)N[C@H](CCCNC(=N)N)C(=O)N[C@@H](Cc1c[nH]c2ccccc12)C(=O)N[C@@H](Cc1ccc(C(=O)c2ccccc2)cc1)C(=O)N1CCC[C@H]1C(=O)NNC(N)=O` [BRU-3003]: the half-maximal effective concentration (EC50) is 760 nM.
Regarding `N=C(N)NCCC[C@H](NC(=O)[C@@H](Cc1ccc2ccccc2c1)NC(=O)CN1CCN(CC(=O)O)CCN(CC(=O)O)CCN(CC(=O)O)CC1)C(=O)N[C@@H](CCC(=O)O)C(=O)N[C@@H](CO)C(=O)N[C@@H](Cc1c[nH]cn1)C(=O)N[C@H](CCCNC(=N)N)C(=O)N[C@@H](Cc1c[nH]c2ccccc12)C(=O)N[C@@H](Cc1ccc(C(=O)c2ccccc2)cc1)C(=O)N1CCC[C@H]1C(=O)NNC(N)=O` [BRU-3110] ({DOTA}-[d2Nal]RESH[dR]W[Bpa]P[azaGly]-NH2; C-terminus assumed), the midpoint of the response, the EC50, lay at 2600 nM.
`N=C(N)NCCC[C@H](NC(=O)[C@@H](Cc1ccc2ccccc2c1)NC(=O)CN1CCN(CC(=O)O)CCN(CC(=O)O)CCN(CC(=O)O)CC1)C(=O)N[C@@H](Cc1c[nH]c2ccccc12)C(=O)N[C@@H](CO)C(=O)N[C@@H](Cc1c[nH]cn1)C(=O)N[C@H](CCCNC(=N)N)C(=O)N[C@@H](Cc1c[nH]c2ccccc12)C(=O)O` [BRU-3046, DO3A10CM-Dna12-Arg-Trp-Ser-His-Darg-Trp-OH] (HELM PEPTIDE1{[O=C(O)CN1CCN(CC(=O)O)CCN(CC(=O)[*:2])CCN(CC(=O)O)CC1].[O=C([C@@H](Cc1ccc2ccccc2c1)N[*:1])[*:2]].R.W.S.H.[dR].W}$$$$V2.0) came in with a concentration giving a half-maximal response (EC50) of 15800 nM.
`CNCC(=O)N[C@@H](CCCNC(=N)N)C(=O)N[C@@H](Cc1c[nH]c2ccccc12)C(=O)N[C@@H](CO)C(=O)N[C@@H](Cc1c[nH]cn1)C(=O)N[C@H](CCCNC(=N)N)C(=O)N[C@@H](Cc1c[nH]c2ccccc12)C(=O)N[C@@H](Cc1ccc(C(=O)c2ccccc2)cc1)C(=O)N1CCC[C@H]1C(=O)NCCOCCNC(=O)CN1CCN(CC(=O)O)CCN(CC(=O)O)CCN(CC(=O)O)CC1` [compound 3039] gave a concentration for a half-maximal effect (EC50) of 280 ± 30 nM.
In turn, `CC(C)NCCCC[C@H](NC(=O)[C@H](Cc1c[nH]c2ccccc12)NC(=O)[C@@H](CCCNC(=N)N)NC(=O)[C@H](Cc1c[nH]cn1)NC(=O)[C@H](CO)NC(=O)[C@H](Cc1c[nH]c2ccccc12)NC(=O)[C@H](Cc1c[nH]cn1)NC(=O)CN(C)C(=O)CN1CCN(CC(=O)O)CCN(CC(=O)O)CCN(CC(=O)O)CC1)C(=O)N1CCC[C@H]1C(=O)NNC(N)=O` [BRU-2675] displayed an EC50 of 12300 nM.
For the compound `C[C@H](NC(=O)[C@H](CO)NC(=O)[C@H](Cc1c[nH]c2ccccc12)NC(=O)[C@H](CCCNC(=N)N)NC(=O)[C@@H](Cc1ccc2ccccc2c1)NC(=O)CN1CCN(CC(=O)O)CCN(CC(=O)O)CCN(CC(=O)O)CC1)C(=O)N[C@H](CCCNC(=N)N)C(=O)N[C@@H](Cc1c[nH]c2ccccc12)C(=O)N[C@@H](Cc1ccc(C(=O)c2ccccc2)cc1)C(=O)N1CCC[C@H]1C(=O)NNC(N)=O` [compound 3028] ({DOTA}-[d2Nal]RWSA[dR]W[Bpa]P[azaGly]-NH2), it took 1090 nM to reach a half-maximal effect (EC50).
`CNCC(=O)N[C@@H](CCCNC(=N)N)C(=O)N[C@@H](Cc1c[nH]c2ccccc12)C(=O)N[C@@H](CO)C(=O)N[C@@H](Cc1c[nH]cn1)C(=O)N[C@H](CCCNC(=N)N)C(=O)N[C@@H](Cc1c[nH]c2ccccc12)C(=O)N[C@@H](Cc1ccc(C(=O)c2ccccc2)cc1)C(=O)N1CCC[C@H]1C(=O)NCCCN(C)CCCNC(=O)CN1CCN(CC(=O)O)CCN(CC(=O)O)CCN(CC(=O)O)CC1` [BRU-3045]: the EC50 was at most 200 nM.
Compound `N=C(N)NCCC[C@H](NC(=O)[C@@H](Cc1ccc2ccccc2c1)NC(=O)CN1CCN(CC(=O)O)CCN(CC(=O)O)CCN(CC(=O)O)CC1)C(=O)N[C@@H](Cc1c[nH]c2ccccc12)C(=O)N[C@@H](CO)C(=O)N[C@@H](Cc1c[nH]cn1)C(=O)N[C@H](CCCNC(=N)N)C(=O)N[C@@H](Cc1c[nH]c2ccccc12)C(=O)N[C@@H](Cc1ccc(C(=O)c2ccccc2)cc1)C(=O)N1CCC[C@H]1C(=O)NC(=N)N` [compound 2984] returned an EC50 of 400 nM.

Staying with this assay, now noted: EFO-27 cells, competition with [125I-Tyr8]BRU-2477, 90 min.
`N=C(N)NCCC[C@H](NC(=O)[C@@H](Cc1ccc2ccccc2c1)NC(=O)CN1CCN(CC(=O)O)CCN(CC(=O)O)CCN(CC(=O)O)CC1)C(=O)N[C@@H](Cc1c[nH]c2ccccc12)C(=O)N[C@@H](CO)C(=O)N[C@@H](Cc1c[nH]cn1)C(=O)N[C@H](CCCNC(=N)N)C(=O)N[C@@H](Cc1c[nH]c2ccccc12)C(=O)N[C@@H](Cc1ccc(C(=O)c2ccccc2)cc1)C(=O)N1CCC[C@H]1C(=O)NCC(=O)NCCCCO` [compound 2978] showed a half-maximal effective concentration (EC50) of 2000 nM.
In the case of `CN(CC(=O)N[C@@H](Cc1c[nH]cn1)C(=O)N[C@@H](Cc1c[nH]c2ccccc12)C(=O)N[C@@H](CO)C(=O)N[C@@H](Cc1c[nH]cn1)C(=O)N[C@H](CO)C(=O)N[C@@H](Cc1c[nH]c2ccccc12)C(=O)N[C@@H](Cc1ccc(C(=O)c2ccccc2)cc1)C(=O)N1CCC[C@H]1C(=O)NNC(N)=O)C(=O)CN1CCN(CC(=O)O)CCN(CC(=O)O)CCN(CC(=O)O)CC1` [compound 2761] ({DOTA}-[Sar]HWSH[dS]W[Bpa]P[azaGly]-NH2), the EC50 was determined as 13600 nM.
On the same count and under the same terms, to `N=C(N)NCCC[C@H](NC(=O)[C@@H](Cc1ccc2ccccc2c1)NC(=O)CN1CCN(CC(=O)O)CCN(CC(=O)O)CCN(CC(=O)O)CC1)C(=O)N[C@@H](Cc1c[nH]c2ccccc12)C(=O)N[C@@H](CO)C(=O)N[C@@H](Cc1c[nH]cn1)C(=O)N[C@H](CCCNC(=N)N)C(=O)N[C@@H](Cc1c[nH]c2ccccc12)C(=O)N[C@@H](Cc1ccc(C(=O)c2ccccc2)cc1)C(=O)N1CCC[C@H]1C(=O)NCC(=O)NN(C(=O)Nc1ccccc1)c1ccccn1` [compound 2989] ({DOTA}-[d2Nal]RWSH[dR]W[Bpa]PG[X2]-NHPh) belongs 1130 nM.
`CN(CC(=O)N[C@@H](Cc1c[nH]cn1)C(=O)N[C@@H](Cc1c[nH]c2ccccc12)C(=O)N[C@@H](CO)C(=O)N[C@@H](Cc1c[nH]cn1)C(=O)N[C@H](CCCNC(=N)N)C(=O)N[C@@H](Cc1c[nH]c2ccccc12)C(=O)N[C@@H](Cc1ccc(C(=O)c2ccccc2)cc1)C(=O)N1CCC[C@H]1C(=O)NNC(N)=O)C(=O)CN1CCN(CC(=O)O)CCN(CC(=O)O)CCN(CC(=O)O)CC1` [BRU-2443]: the midpoint of the response, the EC50, lay at 950 nM.

Still in this assay, the particulars now being: Table 5: modifications of amino acids at positions 1 and 2; in vitro binding on EFO-27 cells.
Compound `N=C(N)NCCC[C@@H](NC(=O)[C@H](Cc1c[nH]cn1)NC(=O)[C@H](CO)NC(=O)[C@H](Cc1c[nH]c2ccccc12)NC(=O)[C@H](Cc1c[nH]cn1)NC(=O)CNC(=O)CNC(=O)CN1CCN(CC(=O)O)CCN(CC(=O)O)CCN(CC(=O)O)CC1)C(=O)N[C@@H](Cc1c[nH]c2ccccc12)C(=O)N[C@@H](Cc1ccc(C(=O)c2ccccc2)cc1)C(=O)N1CCC[C@H]1C(=O)NNC(N)=O` [BRU-2795] had an EC50 of 1370 nM.

Still in this assay, the particulars now being: ratio of EC50 to BRU-2813 (EC50=0.33 μM).
In the case of `N=C(N)NCCC[C@H](NC(=O)[C@@H](Cc1ccc2ccccc2c1)NC(=O)CN1CCN(CC(=O)O)CCN(CC(=O)O)CCN(CC(=O)O)CC1)C(=O)N[C@@H](CCC(=O)O)C(=O)N[C@@H](CO)C(=O)N[C@@H](Cc1c[nH]cn1)C(=O)N[C@H](CCCNC(=N)N)C(=O)N[C@@H](Cc1c[nH]c2ccccc12)C(=O)N[C@@H](Cc1ccc(C(=O)c2ccccc2)cc1)C(=O)N1CCC[C@H]1C(=O)NNC(N)=O` [BRU-3110] ({DOTA}-[d2Nal]RESH[dR]W[Bpa]P[azaGly]-NH2; C-terminus assumed), the “binding potency, times lower than BRU-2813” value is on record as about 8.
